Results taken from patent US7119105B2, “Methods for treating neurodegenerative disorders using aspartyl protease inhibitors” (The Regents of the University of California, priority 1997, dated 2006).

Key:
Type in all cases: cell-based, rat
[1] = tested on: native (unphosphorylated) tau; experiment: Native tau isoforms and 29 kDa fragment in hippocampal slice cultures, tau 1 Western blot; details: ZPAD six-day treatment, tau 1 antibody
Experimental: (§1) Organotypic hippocampal cultures were prepared using the technique of Stoppini, et al. (J. Neurosci. Meth., 37:173–182 (1991)). Briefly, hippocampi were harvested from brains of 9–11 days old Sprague-Dawley rat pups under sterile condition. Horizontal sections vertical to the long axis of hippocampus were cut at 400 μm and collected in a cutting medium consisting of MEM (with Earle's salts, Gibco), 25 mM HEPES, 10 mM Tris Base, 10 mM Glucose, and 3 mM MgCl2 (pH 7.2). Slices were positioned onto 30 mm cell culture inserts (Millicell-CM, Millipore, Bedford, Mass.) that were placed in 6 well culture trays with 1 ml of growth medium (MEM with Hank's salts, Gibco, 20% horse serum, 3 mM glutamine, 25 mM HEPES, 5 mM NaHCO3, 25 mM glucose, 0.5 mM ascorbate, 2 mM CaCl2, 2.5 mM MgCl2, 0.5 mg/l insulin, and penicillin, pH 7.2; 9). […]
(§2) Experiments were carried out using a yoked design in which one of the six culture trays was always used as a control and values for experimentally treated slices were expressed as percents of the same plate control. […]
(§3) Hippocampal slices were collected and sonicated in 10 mM Tris-HCl buffer (pH 7.4) containing 0.32 M sucrose, 2 mM EDTA, 2 mM EGTA, and 0.1 mM leupeptin. […] Immunoblots were scanned and the digitized images were quantitatively analyzed by densitometry using the NIH Image analysis system program.

[2] = tested on: hyperphosphorylated tau fragments (tau 29); experiment: Hyperphosphorylated tau fragments (tau 29) in hippocampal slice cultures, AT8 Western blot
Experimental: Organotypic hippocampal cultures were prepared using the technique of Stoppini, et al. (J. Neurosci. Meth., 37:173–182 (1991)). Briefly, hippocampi were harvested from brains of 9–11 days old Sprague-Dawley rat pups under sterile condition. Horizontal sections vertical to the long axis of hippocampus were cut at 400 μm and collected in a cutting medium consisting of MEM (with Earle's salts, Gibco), 25 mM HEPES, 10 mM Tris Base, 10 mM Glucose, and 3 mM MgCl2 (pH 7.2). Slices were positioned onto 30 mm cell culture inserts (Millicell-CM, Millipore, Bedford, Mass.) that were placed in 6 well culture trays with 1 ml of growth medium (MEM with Hank's salts, Gibco, 20% horse serum, 3 mM glutamine, 25 mM HEPES, 5 mM NaHCO3, 25 mM glucose, 0.5 mM ascorbate, 2 mM CaCl2, 2.5 mM MgCl2, 0.5 mg/l insulin, and penicillin, pH 7.2; 9). The cultures were incubated at 35° C. with a 5% CO2-enriched atmosphere with medium changed every other day until use. Incubations were carried out for 14 days before the start of experiments. This period is sufficient for the slices to take on a variety of adult characteristics (Bahr, J Neurosci Res., 42:294–305 (1995); and Muller, et al., Dev. Brain Res., 71:93–100 (1993)).
Experiments were carried out using a yoked design in which one of the six culture trays was always used as a control and values for experimentally treated slices were expressed as percents of the same plate control. Hippocampal slice cultures were exposed to medium containing one of three cathepsin D inhibitors (see, below) or to ‘ZPAD’ (N-CBZ-L-phenylalanyl-L-alanine-diazomethylketone), a selective inhibitor of cathepsins B and L (Green, et al., J. Biol. Chem., 256:1923–1928 (1981); Richardson, et al., J. Cell Biol., 107:2097–2107 (1988); and Shaw, et al., Biochem. J., 186:385–390 (1980)). […]
as §3

[3] = tested on: 29 kDa APP fragment; experiment: APP fragment in entorhinohippocampal slice cultures (immunoblot, anti-C APP643-695); details: six days; ZPAD 20 μM, CEL5-172 10 μM; vs control
Experimental: Organotypic entorhinohippocampal cultures were prepared using the technique of Stoppini, et al., J. Neurosci. Methods, 37, 173–182 (1991). Briefly, the caudal pole of the cerebral hemisphere containing the entorhinal cortex and hippocampus were harvested from brains of 6–7 days old Sprague-Dawley rat pups under sterile condition. 400 μm horizontal entorhinohippocampal sections cut vertical to the long axes of hippocampus were obtained using a McIlwain tissue chopper in a cutting medium consisting of MEM (with Earle's salts, Gibco), 25 mM HEPES, 10 mM Tris Base, 10 mM Glucose, and 3 mM MgCl2 (pH 7.2). […]
as §3, with “For western blot, entorhinohippocampal explants” for “Hippocampal slices”, “scanned,” for “scanned”, “program. […]” for “program.”

[4] = tested on: cathepsin D isoforms; experiment: Cathepsin D isoforms in hippocampal slice cultures, Western blot; details: ZPAD alone
Experimental: as §1, §2, §3

[5] = tested on: phosphorylated tau fragment; experiment: Phosphorylated tau fragments in entorhinohippocampal slice cultures (immunoblot); details: six days; ZPAD 20 μM, CEL5-172 10 μM, EA-1 1 μM; vs control
Experimental: Briefly, the caudal pole of the cerebral hemisphere containing the entorhinal cortex and hippocampus were harvested from brains of 6–7 days old Sprague-Dawley rat pups under sterile condition. 400 μm horizontal entorhinohippocampal sections cut vertical to the long axes of hippocampus were obtained using a McIlwain tissue chopper in a cutting medium consisting of MEM (with Earle's salts, Gibco), 25 mM HEPES, 10 mM Tris Base, 10 mM Glucose, and 3 mM MgCl2 (pH 7.2). Brain tissue explants were then planted onto 30 mm cell culture inserts (Illicell-CM, Millipore, Bedford, Mass.) that were placed in 6 well culture trays with 1 mL of growth medium (MEM with Hank's salts, Gibco, 20% horse serum, 3 mM glutamine, 25 mM HEPES, 5 mM NaHCO3, 25 mM glucose, 0.5 mM ascorbate, 2 mM CaCl2, 2.5 mM MgCl2, 0.5 mg/L insulin, and penicillin, pH 7.2; Bi, et al., J. Comp. Neuro., 401, 382–394 (1998). The cultures were incubated at 35° C. with a 5% CO2-enriched atmosphere and fed every other day until use.
For western blot, entorhinohippocampal explants were collected and sonicated in 10 mM Tris-HCl buffer (pH 7.4) containing 0.32 M sucrose, 2 mM EDTA, 2 mM EGTA, and 0.1 mM leupeptin. […] Immunoblots were scanned, and the digitized images were quantitatively analyzed by densitometry using the NIH Image analysis system program. […]

N-CBZ-L-phenylalanyl-L-alanine-diazomethylketone [ZPAD]
increase in 29 kDa fragments [1]: 101% | reduction of native tau concentrations (four isoforms) from yoked controls ([1]; n=8): 19–32% | effect on tau 29 concentration, inhibitor by itself ([2]; 2-6 days, CEL5 5 μM, EA-1 at concentrations tested, ZPAD 20 μM): increased | increase in the hyperphosphorylated tau fragment (mean±s.e.m.) ([2]; ZPAD 20 μM by itself, 6 days, vs yoked control, 5 experiments): 104±18% | time at which ZPAD induced increases in phosphorylated tau fragment appeared ([2]; earliest time point tested): 48 h | concentration of 29 kDa APP fragment, inhibitor by itself [3]: increases | increase in heavy chain isoform of cathepsin D [4]: 70% | effect on procathepsin D ([4]; 6 days): modest increases | concentration of phosphorylated tau fragment, inhibitor by itself [5]: increases
